Test [1] relates to DYRK1A. Also on record: method as in Khan et al., 2006; Yang et al., 2009. The conditions noted are these: ref Khan et al., 2006; Yang et al., 2009; cited from earlier work.
A further test addresses laminin receptor. Also on record: method as in Khan et al., 2006; Yang et al., 2009. Conditions: ref Khan et al., 2006; Yang et al., 2009; cited from earlier work.
The test system of the next test is vimentin. Also on record: method as in Khan et al., 2006; Yang et al., 2009. The conditions noted are these: ref Khan et al., 2006; Yang et al., 2009; cited from earlier work.
The test system of a further test is Tg(Dyrk1a) mice. The test is described as follows: Novel object recognition (NOR) test in Tg(Dyrk1a) mice. Format: in vivo, mouse. Conditions: daily i.p. treatment for 19 days.
In the next test the target is CDK5/p25 (Homo sapiens, UniProt Q00535). Put plainly: Recombinant protein kinase assay, CDK5/p25. Format: biochemical. Conditions: 15 µM ATP.
Test [2] concerns the target T1, DYRK1A (Mus musculus, UniProt Q61214).
T1 construct: DYRK1A was purified from brain extracts by immunoprecipitation; from tissue; host or cells: mouse brain (wt, Tg(Dyrk1a), Ts65Dn)
The test is described as follows: Brain DYRK1A catalytic activity after treatment, Tg(Dyrk1a) mice. Conditions: 19 days of treatment. Format: in vivo. Here is the method: Protein kinase assays to measure the catalytic activity of DYRK1A in the brains of the animals treated with or without drugs were performed as follows: frozen half brains were homogenized in lysis buffer (1.2 ml/half brain) using Precellys® homogenizer tubes. After centrifugation at 2800 g for 2×15 s, 1 mg brain extract was incubated with 2 µg DYRK1A (H00001859 M01, Interchim) or GSK3-β (MBS8508391, Emelca Bioscience, France) antibodies at 4°C for 1 h under gentle rotation. Then, 20 µl protein G agarose beads (Thermo Fisher Scientific, France), previously washed three times with bead buffer (50 mM Tris pH 7.4, 5 mM NaF, 250 mM NaCl, 5 mM EDTA, 5 mM EGTA, 0.1% Nonidet P-40 and protease inhibitor cocktail from Roche, France), were added to the mix and gently rotated at 4°C for 30 min. After a 1 min spin at 10,000 g and removal of the supernatant, the pelleted immune complexes were washed three times with bead buffer, and a last time with Buffer C (60 mM β-glycerophosphate, 30 mM p-nitrophenolphosphate, 25 mM Mops pH 7.2, 5 mM EGTA, 15 mM MgCl2, 2 mM dithiothreitol, 0.1 mM sodium orthovanadate, 1 mM phenylphosphate, protease inhibitor cocktail). DYRK1A or GSK-3 immobilized on beads were assayed in buffer C as described in the Supplementary Materials and Methods with Woodtide ([…]) (1.5 µg/assay) or GSK3-tide ([…]pSED-EEE, where pS stands for phosphorylated serine) as substrates.

For test [3], the target named is DYRK1A (Homo sapiens, UniProt Q13627). The test is described as follows: Recombinant protein kinase assay, DYRK1A. The conditions noted are these: 15 µM ATP. Format: biochemical.
The target in a further test is T2, CK2 (Homo sapiens, UniProt P68400).
T2 construct: Cochet
Put plainly: Recombinant protein kinase assay, CK2. Format: biochemical. Conditions: 15 µM ATP.

A further test deals with T3, CDK9/cyclin T (Homo sapiens, UniProt P50750).
T3 construct: made in house; host or cells: insect cells
Put plainly: Recombinant protein kinase assay, CDK9/cyclin T. Type of test: biochemical. Conditions: 15 µM ATP.

The next test addresses CDK2/cyclin A (Homo sapiens, UniProt P24941). Put plainly: Recombinant protein kinase assay, CDK2/cyclin A. Format: biochemical. The conditions noted are these: 15 µM ATP.
A further test deals with CLK3 (Mus musculus, UniProt O35492). Put plainly: Recombinant protein kinase assay, CLK3. Format: biochemical. Conditions: 15 µM ATP; read-out: IC50 CLK3.
A further test has as its target CLK2 (Mus musculus, UniProt O35491). Put plainly: Recombinant protein kinase assay, CLK2. Type of test: biochemical. Conditions: 15 µM ATP; read-out: IC50 CLK2.
A further test concerns the target DYRK3 (Homo sapiens, UniProt O43781). Put plainly: Recombinant protein kinase assay, DYRK3. Type of test: biochemical. Conditions: 15 µM ATP.
The target of another test is DYRK2 (Homo sapiens, UniProt Q92630). The test is described as follows: Recombinant protein kinase assay, DYRK2. Type of test: biochemical. The conditions noted are these: 15 µM ATP.
Another test deals with CLK4 (Mus musculus, UniProt O35493). Put plainly: Recombinant protein kinase assay, CLK4. Type of test: biochemical. The conditions noted are these: 15 µM ATP.
The target of a further test is CLK1 (Mus musculus, UniProt P22518). The test is described as follows: Recombinant protein kinase assay, CLK1. Format: biochemical. Conditions: 15 µM ATP; read-out: IC50 CLK1.
The next test has as its target DYRK1B (Homo sapiens, UniProt Q9Y463). Put plainly: Recombinant protein kinase assay, DYRK1B. Type of test: biochemical. The conditions noted are these: 15 µM ATP.
The target in a further test is PIM1 (Homo sapiens, UniProt P11309). The test is described as follows: Recombinant protein kinase assay, PIM1. Format: biochemical. Conditions: 15 µM ATP.
Chain of PIM1 (P11309 whole entry): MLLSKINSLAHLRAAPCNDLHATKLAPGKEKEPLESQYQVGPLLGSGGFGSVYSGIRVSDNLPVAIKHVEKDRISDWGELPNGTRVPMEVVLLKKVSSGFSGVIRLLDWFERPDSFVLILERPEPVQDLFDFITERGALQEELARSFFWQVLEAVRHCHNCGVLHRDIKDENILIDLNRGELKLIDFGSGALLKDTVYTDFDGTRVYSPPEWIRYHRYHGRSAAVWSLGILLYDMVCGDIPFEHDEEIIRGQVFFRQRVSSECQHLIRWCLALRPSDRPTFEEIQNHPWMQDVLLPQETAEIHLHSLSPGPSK

Chain of CLK2 (O35491 whole entry): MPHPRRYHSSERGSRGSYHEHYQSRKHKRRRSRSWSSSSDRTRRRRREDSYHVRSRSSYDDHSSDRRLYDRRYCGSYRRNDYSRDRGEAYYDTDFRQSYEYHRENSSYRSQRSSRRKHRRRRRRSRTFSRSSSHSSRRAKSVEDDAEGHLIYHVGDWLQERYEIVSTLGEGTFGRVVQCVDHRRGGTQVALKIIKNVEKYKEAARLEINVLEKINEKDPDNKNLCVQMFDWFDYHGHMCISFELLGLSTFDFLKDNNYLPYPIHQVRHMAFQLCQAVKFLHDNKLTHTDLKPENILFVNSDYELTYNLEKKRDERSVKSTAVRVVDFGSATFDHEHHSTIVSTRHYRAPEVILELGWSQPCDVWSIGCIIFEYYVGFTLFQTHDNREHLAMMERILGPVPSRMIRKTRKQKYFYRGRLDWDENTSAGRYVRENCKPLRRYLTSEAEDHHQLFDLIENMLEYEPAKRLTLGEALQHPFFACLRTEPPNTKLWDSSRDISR
T2 sequence (P68400 whole entry): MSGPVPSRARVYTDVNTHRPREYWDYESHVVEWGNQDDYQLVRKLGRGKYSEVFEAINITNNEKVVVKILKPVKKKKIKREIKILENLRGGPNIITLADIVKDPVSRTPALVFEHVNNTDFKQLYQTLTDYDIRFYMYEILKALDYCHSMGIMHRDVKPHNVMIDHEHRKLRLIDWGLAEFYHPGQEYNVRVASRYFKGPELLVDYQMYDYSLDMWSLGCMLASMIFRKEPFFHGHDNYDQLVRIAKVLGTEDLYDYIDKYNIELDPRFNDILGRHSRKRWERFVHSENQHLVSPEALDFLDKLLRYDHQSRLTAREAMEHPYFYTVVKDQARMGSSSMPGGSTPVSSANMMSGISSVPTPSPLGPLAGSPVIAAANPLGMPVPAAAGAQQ
T3 sequence (P50750 whole entry): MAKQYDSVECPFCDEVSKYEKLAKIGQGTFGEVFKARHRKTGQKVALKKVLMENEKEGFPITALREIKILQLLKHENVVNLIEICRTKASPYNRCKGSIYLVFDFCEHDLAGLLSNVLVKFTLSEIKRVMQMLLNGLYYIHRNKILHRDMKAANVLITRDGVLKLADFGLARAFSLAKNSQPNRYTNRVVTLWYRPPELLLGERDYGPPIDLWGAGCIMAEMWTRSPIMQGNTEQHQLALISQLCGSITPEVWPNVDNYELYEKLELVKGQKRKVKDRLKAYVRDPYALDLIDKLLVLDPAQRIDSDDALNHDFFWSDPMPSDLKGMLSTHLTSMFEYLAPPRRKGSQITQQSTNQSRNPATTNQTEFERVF
T3 sequence (O60563 whole entry partner): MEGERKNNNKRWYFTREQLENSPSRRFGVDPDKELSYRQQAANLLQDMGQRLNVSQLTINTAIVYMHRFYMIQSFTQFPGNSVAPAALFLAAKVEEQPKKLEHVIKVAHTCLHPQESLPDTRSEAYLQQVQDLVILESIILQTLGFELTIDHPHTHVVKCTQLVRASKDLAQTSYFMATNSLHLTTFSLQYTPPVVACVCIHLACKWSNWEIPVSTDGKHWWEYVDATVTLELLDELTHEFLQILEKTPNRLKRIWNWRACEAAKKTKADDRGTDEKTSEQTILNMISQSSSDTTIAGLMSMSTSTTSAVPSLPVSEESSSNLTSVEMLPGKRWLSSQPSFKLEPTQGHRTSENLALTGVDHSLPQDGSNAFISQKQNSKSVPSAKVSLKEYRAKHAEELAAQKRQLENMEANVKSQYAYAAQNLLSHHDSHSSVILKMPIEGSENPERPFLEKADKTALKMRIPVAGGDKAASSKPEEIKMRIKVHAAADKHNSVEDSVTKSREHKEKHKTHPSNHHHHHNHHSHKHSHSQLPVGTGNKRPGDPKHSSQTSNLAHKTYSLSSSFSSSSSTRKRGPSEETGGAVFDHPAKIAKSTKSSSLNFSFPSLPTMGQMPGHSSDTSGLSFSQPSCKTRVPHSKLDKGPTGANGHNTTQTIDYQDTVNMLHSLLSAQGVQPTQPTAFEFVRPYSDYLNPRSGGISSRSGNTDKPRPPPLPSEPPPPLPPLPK
Chain of CDK5/p25 (Q00535 whole entry): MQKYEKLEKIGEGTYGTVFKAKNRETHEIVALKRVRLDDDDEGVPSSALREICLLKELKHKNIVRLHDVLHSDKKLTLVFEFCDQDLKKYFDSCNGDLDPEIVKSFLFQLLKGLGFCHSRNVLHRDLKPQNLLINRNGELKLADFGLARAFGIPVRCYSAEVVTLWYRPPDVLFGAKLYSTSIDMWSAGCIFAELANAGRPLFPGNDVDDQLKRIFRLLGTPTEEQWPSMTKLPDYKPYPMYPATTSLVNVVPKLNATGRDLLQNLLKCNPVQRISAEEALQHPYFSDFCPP
Chain of CDK5/p25 (Q15078 99-307 partner limits assumed): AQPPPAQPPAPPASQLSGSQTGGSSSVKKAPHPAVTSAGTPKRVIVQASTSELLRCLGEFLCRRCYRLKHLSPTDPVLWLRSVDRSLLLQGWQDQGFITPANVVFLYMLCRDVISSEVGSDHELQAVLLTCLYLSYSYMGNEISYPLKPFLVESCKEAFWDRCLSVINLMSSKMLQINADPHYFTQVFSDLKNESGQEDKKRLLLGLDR
Chain of CLK3 (O35492 whole entry): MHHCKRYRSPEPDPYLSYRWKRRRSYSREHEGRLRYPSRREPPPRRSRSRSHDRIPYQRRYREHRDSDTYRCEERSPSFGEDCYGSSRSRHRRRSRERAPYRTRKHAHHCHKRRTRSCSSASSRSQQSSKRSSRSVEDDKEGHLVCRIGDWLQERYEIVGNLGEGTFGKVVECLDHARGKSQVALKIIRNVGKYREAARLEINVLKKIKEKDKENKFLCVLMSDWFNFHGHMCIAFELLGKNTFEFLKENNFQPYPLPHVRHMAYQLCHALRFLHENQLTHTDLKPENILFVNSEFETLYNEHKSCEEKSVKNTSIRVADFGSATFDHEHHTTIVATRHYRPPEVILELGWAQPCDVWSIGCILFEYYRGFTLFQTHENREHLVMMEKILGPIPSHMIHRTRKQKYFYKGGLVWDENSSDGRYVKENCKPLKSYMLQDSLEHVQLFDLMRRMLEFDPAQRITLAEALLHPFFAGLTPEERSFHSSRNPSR
Chain of DYRK3 (O43781 whole entry): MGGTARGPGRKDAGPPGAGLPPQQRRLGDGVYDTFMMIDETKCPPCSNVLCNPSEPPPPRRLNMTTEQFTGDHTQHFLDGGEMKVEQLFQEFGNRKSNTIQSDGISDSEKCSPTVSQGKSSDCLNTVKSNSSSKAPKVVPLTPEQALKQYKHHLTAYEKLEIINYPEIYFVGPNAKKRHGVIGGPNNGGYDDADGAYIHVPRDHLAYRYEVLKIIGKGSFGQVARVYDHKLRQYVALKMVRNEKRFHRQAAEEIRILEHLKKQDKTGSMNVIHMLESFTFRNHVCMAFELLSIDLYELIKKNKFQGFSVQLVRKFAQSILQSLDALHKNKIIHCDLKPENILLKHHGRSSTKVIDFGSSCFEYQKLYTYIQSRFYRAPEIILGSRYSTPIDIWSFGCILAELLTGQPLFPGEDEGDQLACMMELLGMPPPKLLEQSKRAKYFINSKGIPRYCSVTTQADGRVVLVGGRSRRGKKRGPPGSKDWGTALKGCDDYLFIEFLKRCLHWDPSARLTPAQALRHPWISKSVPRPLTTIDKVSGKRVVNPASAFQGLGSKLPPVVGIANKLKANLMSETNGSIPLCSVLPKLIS
Chain of CLK4 (O35493 whole entry): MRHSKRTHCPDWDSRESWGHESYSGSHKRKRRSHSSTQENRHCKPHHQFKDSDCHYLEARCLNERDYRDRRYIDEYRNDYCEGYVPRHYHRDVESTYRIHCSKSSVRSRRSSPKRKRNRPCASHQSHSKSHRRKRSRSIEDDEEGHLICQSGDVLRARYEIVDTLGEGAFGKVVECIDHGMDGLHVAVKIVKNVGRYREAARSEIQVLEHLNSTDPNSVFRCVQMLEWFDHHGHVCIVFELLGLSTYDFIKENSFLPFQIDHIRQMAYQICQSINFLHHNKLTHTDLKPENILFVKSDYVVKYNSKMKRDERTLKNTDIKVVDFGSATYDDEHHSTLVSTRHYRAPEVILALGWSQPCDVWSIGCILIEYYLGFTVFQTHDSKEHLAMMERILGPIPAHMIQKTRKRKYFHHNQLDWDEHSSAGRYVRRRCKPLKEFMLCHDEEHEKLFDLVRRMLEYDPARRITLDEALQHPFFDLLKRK
Chain of CLK1 (P22518 whole entry): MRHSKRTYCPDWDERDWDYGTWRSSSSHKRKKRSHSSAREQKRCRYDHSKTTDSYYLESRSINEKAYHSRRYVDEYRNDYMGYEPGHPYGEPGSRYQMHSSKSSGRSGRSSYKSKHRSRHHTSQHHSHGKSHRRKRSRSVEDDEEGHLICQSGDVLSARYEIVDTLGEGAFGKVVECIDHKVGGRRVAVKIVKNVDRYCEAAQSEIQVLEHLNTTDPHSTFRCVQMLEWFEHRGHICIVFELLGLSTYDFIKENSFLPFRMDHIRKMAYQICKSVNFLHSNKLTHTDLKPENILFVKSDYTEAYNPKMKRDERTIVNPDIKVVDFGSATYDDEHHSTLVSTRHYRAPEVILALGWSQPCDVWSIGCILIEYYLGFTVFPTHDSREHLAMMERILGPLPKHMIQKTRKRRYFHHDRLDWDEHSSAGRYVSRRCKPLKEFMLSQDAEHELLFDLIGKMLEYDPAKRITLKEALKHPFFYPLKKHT

As to `O=C(O[C@@H]1Cc2c(O)cc(O)cc2O[C@@H]1c1cc(O)c(O)c(O)c1)c1cc(O)c(O)c(O)c1` [EGCG, epigallocatechin gallate], the IC50 in the test on DYRK1A [1] is 0.33 µM; at laminin receptor, 0.04 µM; with vimentin it was 0.003 µM.
Regarding `O=C1NC(Nc2ccccc2)=N/C1=C\c1ccc2c(c1)OCCCO2` [L43], in the test on Tg(Dyrk1a) mice, the “Behavioural effect in NOR test” value was “lack of effects”. The IC50 on CDK5/p25 is > 10 µM; on DYRK1A [3], 7.4 µM; on CK2, > 10 µM; on CDK9/cyclin T, > 10 µM; on CDK2/cyclin A it was > 10 µM; on CLK3, > 10 µM. The IC50 at CLK2 and at DYRK3 was > 10 µM in each case. Further, the “Tg(Dyrk1a) brain DYRK1A activity” value on DYRK1A [2] is reported as “did not reduce”.
`COc1cc(/C=C2\N=C(Nc3ccc(N4CCN(C)CC4)cc3)NC2=O)ccc1O` [L99]: the IC50 on DYRK2 was 0.015 µM; on CDK5/p25 it was > 10 µM; on DYRK1A [3] it was 0.014 µM; at CLK4 it was 0.012 µM; at CK2, > 10 µM; at CDK9/cyclin T, 0.32 µM. Besides, the IC50 is 0.012 µM at CLK1; > 10 µM at CDK2/cyclin A; 0.7 µM on CLK3; 0.02 µM on DYRK1B; 0.03 µM on CLK2; 0.21 µM on PIM1. Also, the IC50 at DYRK3 was 0.01 µM. Besides, in the test on Tg(Dyrk1a) mice, the “Behavioural effect in NOR test” value was “beneficial behavioural effects”.
